# Columns and labels:
# HL-60 cells = test: Diversion (differentiation) of human leukemic cells, NBT reduction; format: cell-based; conditions: IND, MAT, YLE, LIK, APN and PYE 50 ng/ml, higher NBT (%) means higher normal cells
# Procedure: HL-60 cells were established from a patient with acute myeloid leukemia. The cells were cultured in culture flasks with RPMI plus 10% FCS
# Differentiation of HL-60 cells was assessed by their abilities to produced superoxide as measured by reduction of NBT, by NSE staining and by morphology as detected on cytospin preparations stained with Diff-Quick stain Set, and by analysis of membrane-bound differentiation markers with two-color immunofluorescence Briefly, cells were preincubated at 4° C. for 60 min in 10% human AB serum and then with FITC-conjugated mouse IgGI isotype control Analysis of fluorescence was performed on a flow cytometer.
# NBT % indicated percentage of normal cells
# gastric cancer cells = test: Diversion of gastric cancer cells, NBT; format: cell-based
# Procedure: The gastric cancer cells and normal cells were cultured in PRMI 1640 medium supplement with 10% FCS serum Other method is similar to example 10
# Normal cells = test: Apoptosis of normal cells; format: cell-based
# Procedure: (§1) Cells ([…] were incubated in 10 ml IMDM plus […] heat-inactivated fetal calf serum. Samples were incubated for 24 hours with various concentrations of drugs Control samples received the same amount of media, without drug addition After 24 hours of incubation the samples were pelleted and fixed in ethanol 705 for 15 minutes at 4° C., after three washes in PBS, the cells were treated with PNase I 0.5 mg/ml for 15 minutes at 37° C. The cells were harvested by centrifugation and resuspended in 50 μg/ml propidium iodide in PBS. Analysis (upon acquisition of 10,000-20,000 events) was performed on a FACscan flow cytometer with the FL2 detector in logarithmic mode, using Lysis II software (Becton Dickinson). Apoptotic cells were located in the hypodiploid region of the histogram, due to chromosome condensation and fragmentation
# (§2) For evaluation of apoptosis by flow cytometry, cells were fixed and permeabilized in 1% paraformaldehyde and ice-cold 70% ethanol Digoxigenin-dUTP was incorporated at the 3′OH ends of the fragmented DNA in the presence of terminal deoxynucleotidyltranserase, and the cells were incubated with FITC-labeled anti-digoxigenin-dUTP and with propidium iodide. Green (apoptotic cells) and orange (total DNA) fluorescence were measured with a FACScan flow cytometer and analyzed with LYSIS It and CELLFIT programs Data were analyzed by Student's t-test P values were considered significant when <0.05.
# (§3) Untreated and treated HL-60 cells collected by centrifugation, washed in phosphate buffered saline and re-suspended at a concentration of 5×10^6 cells and 0.1% RNase A. The mixture was incubated at 37° C. for 30 min and then incubated for an additional 30 min at 37° C. Buffer was added and 25 μl of the tube content transferred to the Horizontal 1.5% agarose gel electrophoresis was performed at 2 V/cm DNA in gels visualized under UV light after staining with ethidium Bromide (5 μg/ml)
# (§4) DNA fragmentation assays DNA cleavage was performed, quantitation of fractional solubilized DNA by diphenylamine assay and the percentage of cells harboring fragmented DNA determined by in labeling techniques For the diphenylamine assay, 5×10^6 cells were lysed in 0 5 mL lysis buffer (5 mmol/L Tris-HCI, 20 mmol/L DTA, and 0 5% Triton X-100, pH 8 0) at 4° C. Lysates were centrifuged (15,000 g) for separation of high molecular weight DNA (pellet) and DNA cleavage products (supernatant). DNA was precipitated with 0.5 N perchloric acid and quantitated using diphenylamine reagent. The cell cycle distribution was determined 4 hours after addition of drug and represents mean±SD of 5 independent experiments
# (§5) Apoptosis of HL-60 cells was assessed by changes in cell morphology and by measurement of DNA nicks using the Apop Tag Kkt (Oncor, Gaithersburg, MD). […] These changes are detected on cytospin preparations stained with Diff-Quick Stain Set Apoptotic cells were enumerated in a total of about 300 cells by light microscopy
# [1] = tested on: Human leukemia cells (HL-60); test: Apoptosis of human leukemia cells; format: cell-based
# Procedure: Human leukemia cells (HL-60) were grown in RPMI Medium 1640 supplemented with 10% (v/v) heat-inactivated FBS (56° C. for 30 min) at 37° C. in a humidified 95% air/5% CO2 atmosphere. Cells were seeded at a level of 2×10^5 cells/ml Cells were allowed to attain a maximum density of 1 2×10^6 cells/ml before being passed by dilution into fresh medium to a concentration of 2×10^5 cells/ml Cell pellets containing 5×10^6 cells were fixed with 2 5% glutaraldehyde in cacodylate buffer (pH 7 4), dehydrated through graded alcohol, and infiltrated with LX-112 epoxy resin. After overnight polymerization at 60° C. 1-μm sections were cut with glass knives using a microtome.
# as §1, §2, §3
# as §4, with “Lysates were centrifuged (15,000 g) for separation of high molecular weight DNA (pellet) and DNA cleavage products (supernatant).” left out
# as §5
# human cancer cells = test: Inhibition of tumor cell proliferation; format: cell-based; conditions: 1 μg/ml drug, 72 hours
# Procedure: Human tumor cell lines Hela leukemia HL-60, malignant melanocarcinoma B16, oral epidermoid carcinoma (KB), lung carcinoma (A549), breast carcinoma MCF-7, adenocarcinoma of stomach Animal tumor cell lines Walker carcinoma, LLC-WRC-256, malignant melanoma (RMMI 1846), 3T3, and S-180 sarcoma (CCRF-180). All lines were routinely cultured in the RPMI1640 medium supplemented 20% fetal calf serum. The experiment was carried out in 96 microplate, each well had 5×10^5 cells and given desired concentration of 1 μg /ml (1×10^−6 g/ml) drug Then the plate was incubated at 37° C. in an atmosphere of humidified air enriched with 5 percent carbon dioxide for 72 hours
# Inhibition percent rate of tumor cell proliferation was obtained according to the bellow formula [formula]
# L615 transplanted tumor = test: Growth of transplanted tumor in mice; format: in vivo; conditions: intraperitoneally, other drugs 20 mg/kg, sacrificed on the 12th day
# Procedure: Male mice, weight 20-22 g, were used in the experiment 1×10^7 tumor cells were injected to mouse and other drugs injected intraperitoneally began second day. All mice were sacrificed on the 12th day, isolated the tumor and weighed and calculated the inhibition rate of tumor weight
# The effect of other drugs and HHT on the growth of animal transplanted tumor as illustrated by the Table 6 20 mg/kg of other drugs could inhibit the growth of L615 transplanted tumor.
# tyrosine kinase (TK) = test: Tyrosine kinase (TK) assay of HL-60 leukemia cells; format: cell-based, human
# Procedure: Tyrosine kinase (TK) Assay. TK was measured by a modification of the method of Braun et al Briefly, H-60 leukemia cells were plated at a density of 5×10^5 cells in […], and divided control and treatments groups for incubation 24 hours at 37° C. with 5% CO2. The cells were collected by scraping, washed twice with phosphate-buffered saline, and resuspended at density of 10^6 cells/ml in 5 mM HEPESs buffer (pH 7.4). The cells were then resuspended in 1 ml of buffer containing 5 mM HEPES (pH 7.6), 1 mM MgCl2 and ImM EDTA, then placed on ice bath The cell membrane was disrupted by ultra sound and centrifuged at 1,000×g for 10 minutes The supernatant was ultra centrifuged at 30,000×g for 30 minutes at 4° C. The pellet was resuspended in 0 3 ml of buffer containing 25 mM HEOES, centrifuged at 12,000×g for 5 minutes The resulting supernatant was used for TK assay. Content of protein was determined 10 μg of protein placed in 20 mM HEPES (pH 7 6), 15 mM MgCl2, 10 nM ZnCl2 and 5% (v/v) nonidet P-40, with or without substrate [glutamic acid (GT), mg/ml]. After 5 minutes incubation at 25° C., the reaction was initiated by the addition of 25 μM [γ^32P] ATP (3 ci/mmol) After 10 minutes, the reaction was stopped by the addition of 20 mM cold ATP. 50 μl of the mixtures were spotted on glass microfiber filter discs and washed three times with cold trichloroacetic acid (TCA), contained 1 mM sodium pyrophosphate Air dried. Radioactivity was determined by liquid scintillation spectrometry. The net TK activity was determined after correcting for endogenous TK activity
# [2] = tested on: NNK-induced pulmonary adenomas; test: NNK-induced lung tumorigenesis; format: in vivo; conditions: mice, drug by injection 20 mg/kg daily, 10 μmol NNK i.p., sixteen weeks
# Procedure: Every group had 20 mice For treatment group, each mouse was gave Drug by injection at dose of 20 mg/kg daily. For control group, each mouse was gave same volume of physiological saline Three days later, mice were gave 10 μmol NNK (in 0.1 ml saline) by i.p injection. Sixteen weeks after these treatments the mice were killed and pulmonary adenomas were counted The statistical significance of bioassay data was determined by student's test.
# [3] = tested on: lipid peroxidation, liver microsome; test: Lipid peroxidation in liver microsome (MDA, TBA); format: biochemical, rats; conditions: drug 50 μM, 37° C.
# Procedure: The liver microsome (1 mg protein) in 0.15 M KCl, 0 25 M Tris-HCl buffer, pH 7.5, 2 mμ ADP, 10 μM FeSO4 and Drug B (50 μM) were incubated at 37° C. for 5 min The reactions were terminated after 30 min by added 2 ml thiobarbituric acid (TBA) and content of the malondialdehyde (MDA) formed was determined.
# carcinogen-DNA binding = test: Inhibition of carcinogen-DNA binding; format: cell-based
# Procedure: Cells were maintained in 75-cm^2 tissue culture flask with media supplemented with retinoic acid (0 1 μg/ml) and epinephrine (0 5 μg/ml) The cells were passage when they reached approximately 80% confluence and were maintained at 37° C. in 5% CO2. Cells were plated at a density of 5×10^5 cells/well in 6-well tissue culture plates and allowed to incubated for 18 h at 37° C. in 5% CO2 Following incubation, the DNA was harvested and resuspended in Tris-EDTA buffer RNA was removed by treating with RNase T1 and RNase A at 37° C. for 1 h. An aliquot was used for determining the DNA content by the absorbency at 260 nm, and the rest of the sample was used to determine the radioactivity; the percentage inhibition of carcinogen-DNA binding was determined by measuring the cpm/mg of DNA in the carcinogen
# [4] = Toxic doses for mice (repeated injection); format: in vivo; conditions: 38 normal mice, injection 2 mg/kg/day×5, observation period of 5 days
# Procedure: Toxic doses for dogs 0 16 mg/kg/day×7 of HHT was established as the toxic doses. Toxic doses for mice In 38 normal mice after injection of HHT of 2 mg/kg/day×5 with the observation period of 5 days about 50% of the mice died.
substance,measurement,setting,value
Homoharringtonine [HHT],NBT (%),HL-60 cells,65 ± 7.0 %
same,NBT (%),gastric cancer cells,58 ± 8.9 %
same,Apoptosis (%),Normal cells; HHT 10 ng/ml,16.5 ± 2.0 %
same,Apoptosis (%),Normal cells; HHT 50 ng/ml,18.5 ± 2.5 %
same,Apoptosis (%),Normal cells; HHT 50 ng/ml alone or with 50 ng/ml of the other drug (Table 4),18.5 ± 2.5%
same,Apoptosis (%),Normal cells; HHT 100 ng/ml,22.0 ± 3.5 %
same,Apoptosis (%),Normal cells; HHT 500 ng/ml,29.5 ± 5.2 %
same,Apoptosis (%),"[1]; Human leukemia cell, HHT 50 ng/ml alone or with 50 ng/ml of the other drug (Table 4)",42.8 ± 5.2%
same,Apoptosis (%),"[1]; Human leukemia cells, HHT 10 ng/ml",33.8 ± 4.8 %
same,Apoptosis (%),"[1]; Human leukemia cells, HHT 50 ng/ml",42.8 ± 5.2 %
same,Apoptosis (%),"[1]; Human leukemia cells, HHT 100 ng/ml",60.2 ± 8.9 %
same,Apoptosis (%),"[1]; Human leukemia cells, HHT 500 ng/ml",92.0 ± 10.8 %
same,Inhibition (%) of growth of cancer cells,human cancer cells,73.8 ± 8.1%
same,Inhibition (%) of transplanted tumor (tumor weight),L615 transplanted tumor,68 ± 7.2%
same,inhibition of TK activity,"tyrosine kinase (TK); HL-60, 10^−8 M",12.2%
same,% of control activity (TK),"tyrosine kinase (TK); HL-60 leukemia cells, 10^−6 M, 24 hours",0.6%
same,% of control activity (TK),"tyrosine kinase (TK); HL-60 leukemia cells, 10^−7 M, 24 hours",21.5 ± 4.0%
same,% of control activity (TK),"tyrosine kinase (TK); HL-60 leukemia cells, 10^−8 M, 24 hours",87.8 ± 12%
same,% of control activity (TK),"tyrosine kinase (TK); Table 8, HHT alone or with other drug, concentration not given",21.5 ± 4.0%
same,Tumor incidence (%),[2],35.8 ± 4.5%
same,Nmoles MDA/mg protein,[3],8.5 ± 1.0 Nmoles MDA/mg protein
same,Inhibition (%) of carcinogen-DNA binding,carcinogen-DNA binding,56.8 ± 6.2%
same,mice died,[4],about 50%

# Reference: US20040072790A1, “Safe natural pharmaceutical composition for treating cancer” (priority 2002, published 2004)
